Earlier results on three compounds are cited in patent US12133913B2, “Methods of treating overactive bladder using trospium” (TARIS BIOMEDICAL LLC, priority 2018, dated 2024).

Each structure is given as a SMILES string. Where a name gives a salt, the structure may show the parent alone. Read-outs that look alike come from different tables or passages of the source.

In series [1] the test system is oral naïve overactive bladder patients.
For series [2] the following is noted: in vivo.

Take `Cc1ccc(O)c([C@H](CCN(C(C)C)C(C)C)c2ccccc2)c1` [Detrol® LA, tolterodine tartrate]: the “Reduction in average daily incontinence episodes from baseline” value in series [1] (in vivo, po) is on record as 0.8. As to `O=C(O[C@H]1CN2CCC1CC2)N1CCc2ccccc2[C@@H]1c1ccccc1` [VESIcare®, solifenacin succinate], the “Reduction in average daily incontinence episodes from baseline” value in series [1] (oral treatment, oral naïve patients) was 1.4. In the case of `O=C(OC1CC2CCC(C1)[N+]21CCCC1)C(O)(c1ccccc1)c1ccccc1.[Cl-]` (stereo not drawn) [oral trospium, 3-(2-hydroxy-2,2-diphenylacetoxy)spiro[bicyclo[3.2.1]octane-8,1′-pyrrolidin]-1′-ium chloride], the “Predicted urine levels achieved with oral trospium” value in series [2] was 0.5 to 1 µg/mL.
